Experimental data as given in article PMC3914206.

Tests used:
Assay type in all cases: binding
Parameters in all cases: KINOMEscan: ABL1(F317L)-phosphorylated / KINOMEscan: ABL1(H396P)-nonphosphorylated / KINOMEscan: ABL1(H396P)-phosphorylated / KINOMEscan: ABL1(M351T)-phosphorylated / KINOMEscan: ABL1(T315I)-phosphorylated / KINOMEscan: ABL1-nonphosphorylated / KINOMEscan: ABL1-phosphorylated / KINOMEscan: ACVR2A / KINOMEscan: ACVR2B / KINOMEscan: ADCK3 / KINOMEscan: ADCK4 / KINOMEscan: AKT1 / KINOMEscan: AKT3 / KINOMEscan: ALK / KINOMEscan: ARK5 / KINOMEscan: AURKA / KINOMEscan: AURKC / KINOMEscan: BIKE / KINOMEscan: BMPR1A / KINOMEscan: BMPR1B / KINOMEscan: BMX / KINOMEscan: BRK / KINOMEscan: BRSK1 / KINOMEscan: BRSK2 / KINOMEscan: CAMK1 / KINOMEscan: CAMK1D / KINOMEscan: CAMK1G / KINOMEscan: CAMK2A / KINOMEscan: CAMK2B / KINOMEscan: AAK1 / KINOMEscan: CAMK2D / KINOMEscan: CAMK2G / KINOMEscan: ABL1(F317I)-nonphosphorylated / KINOMEscan: ABL1(F317I)-phosphorylated / KINOMEscan: ABL1(F317L)-nonphosphorylated: unit: % Ctrl
Settings in all cases: Compound Concentration 10 µM
panel of 442 kinases [1] = target: T1, panel of 442 kinases (Homo sapiens, UniProt Q13546)
T1 construct: purchased KINOMEscan
T1 sequence (Q13546 1-671): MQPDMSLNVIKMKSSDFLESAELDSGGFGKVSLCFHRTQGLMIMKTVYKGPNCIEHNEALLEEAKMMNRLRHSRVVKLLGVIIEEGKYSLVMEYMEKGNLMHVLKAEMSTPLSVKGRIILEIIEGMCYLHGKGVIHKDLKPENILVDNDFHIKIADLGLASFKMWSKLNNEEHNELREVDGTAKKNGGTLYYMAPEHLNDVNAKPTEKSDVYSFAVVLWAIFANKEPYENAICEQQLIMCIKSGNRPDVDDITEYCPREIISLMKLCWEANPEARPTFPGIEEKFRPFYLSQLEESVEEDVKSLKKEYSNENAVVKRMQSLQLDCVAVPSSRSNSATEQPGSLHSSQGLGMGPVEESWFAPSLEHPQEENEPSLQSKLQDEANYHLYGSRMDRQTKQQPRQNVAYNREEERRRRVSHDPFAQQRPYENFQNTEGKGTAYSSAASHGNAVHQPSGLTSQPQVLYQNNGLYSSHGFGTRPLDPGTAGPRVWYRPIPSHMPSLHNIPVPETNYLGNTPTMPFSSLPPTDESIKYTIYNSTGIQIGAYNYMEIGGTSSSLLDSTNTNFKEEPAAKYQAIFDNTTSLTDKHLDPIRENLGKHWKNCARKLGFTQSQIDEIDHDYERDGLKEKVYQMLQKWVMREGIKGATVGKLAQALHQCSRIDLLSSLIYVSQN
Source text: (§1) We assessed the selectivity of members of this scaffold using the KINOMEscan methodology across a near comprehensive panel of 442 kinases [[18,27]].

panel of 442 kinases [2] = target: T2, panel of 442 kinases (Homo sapiens, UniProt Q13554)
T2 construct: purchased KINOMEscan
T2 sequence (Q13554 whole entry): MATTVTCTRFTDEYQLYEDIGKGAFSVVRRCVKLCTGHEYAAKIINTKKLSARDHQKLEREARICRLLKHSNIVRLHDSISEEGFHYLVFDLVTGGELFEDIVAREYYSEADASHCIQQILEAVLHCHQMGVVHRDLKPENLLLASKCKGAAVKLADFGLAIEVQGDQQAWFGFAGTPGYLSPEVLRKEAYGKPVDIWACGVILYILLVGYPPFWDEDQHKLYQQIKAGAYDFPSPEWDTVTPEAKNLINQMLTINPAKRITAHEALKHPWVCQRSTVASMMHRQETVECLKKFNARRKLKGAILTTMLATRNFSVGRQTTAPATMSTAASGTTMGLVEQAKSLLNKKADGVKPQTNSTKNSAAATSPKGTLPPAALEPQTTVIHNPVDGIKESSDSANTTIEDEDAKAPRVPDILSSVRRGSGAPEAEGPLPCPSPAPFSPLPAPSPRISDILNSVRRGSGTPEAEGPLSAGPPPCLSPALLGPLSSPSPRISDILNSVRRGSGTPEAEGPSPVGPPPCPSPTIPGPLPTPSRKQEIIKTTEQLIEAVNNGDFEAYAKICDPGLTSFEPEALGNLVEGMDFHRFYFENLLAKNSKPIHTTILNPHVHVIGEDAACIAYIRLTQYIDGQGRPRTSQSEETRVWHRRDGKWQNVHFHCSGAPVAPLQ
Source text: as §1

panel of 442 kinases [3] = target: T3, panel of 442 kinases (Homo sapiens, UniProt P04626)
T3 construct: purchased KINOMEscan
T3 sequence (P04626 23-1255): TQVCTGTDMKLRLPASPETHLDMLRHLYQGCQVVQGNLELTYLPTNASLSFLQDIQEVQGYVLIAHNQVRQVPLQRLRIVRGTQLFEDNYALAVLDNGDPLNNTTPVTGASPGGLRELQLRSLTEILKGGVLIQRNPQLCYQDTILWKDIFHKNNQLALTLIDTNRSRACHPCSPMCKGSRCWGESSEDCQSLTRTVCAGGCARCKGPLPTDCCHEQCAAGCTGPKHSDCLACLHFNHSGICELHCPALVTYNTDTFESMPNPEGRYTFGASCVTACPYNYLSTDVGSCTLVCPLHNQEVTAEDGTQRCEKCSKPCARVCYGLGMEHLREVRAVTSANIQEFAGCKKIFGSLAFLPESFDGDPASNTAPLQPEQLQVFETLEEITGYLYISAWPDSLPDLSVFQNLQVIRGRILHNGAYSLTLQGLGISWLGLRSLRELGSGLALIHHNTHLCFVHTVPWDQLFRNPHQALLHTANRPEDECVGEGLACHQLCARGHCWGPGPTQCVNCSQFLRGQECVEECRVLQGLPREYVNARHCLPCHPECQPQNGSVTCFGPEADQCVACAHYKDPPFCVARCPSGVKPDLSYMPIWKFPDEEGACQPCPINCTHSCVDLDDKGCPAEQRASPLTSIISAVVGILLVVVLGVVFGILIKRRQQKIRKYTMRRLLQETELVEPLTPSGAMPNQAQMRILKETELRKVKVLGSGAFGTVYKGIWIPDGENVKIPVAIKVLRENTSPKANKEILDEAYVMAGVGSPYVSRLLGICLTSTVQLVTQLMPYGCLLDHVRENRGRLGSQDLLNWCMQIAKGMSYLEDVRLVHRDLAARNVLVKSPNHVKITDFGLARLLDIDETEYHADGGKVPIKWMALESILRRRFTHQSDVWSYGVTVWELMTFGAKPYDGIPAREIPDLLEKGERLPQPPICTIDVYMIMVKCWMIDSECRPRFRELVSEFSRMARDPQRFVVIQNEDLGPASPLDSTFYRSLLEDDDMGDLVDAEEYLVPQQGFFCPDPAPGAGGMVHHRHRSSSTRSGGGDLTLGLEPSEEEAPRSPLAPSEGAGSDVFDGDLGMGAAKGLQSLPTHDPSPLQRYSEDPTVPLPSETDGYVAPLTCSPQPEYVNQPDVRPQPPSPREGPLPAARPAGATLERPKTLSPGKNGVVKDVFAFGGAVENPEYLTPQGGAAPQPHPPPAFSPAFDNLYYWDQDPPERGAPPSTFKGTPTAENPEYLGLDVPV
Source text: as §1

| SMILES | KINOMEscan: RIPK1 (panel of 442 kinases [1]) | KINOMEscan: CAMK2B (panel of 442 kinases [2]) | KINOMEscan: ERBB2 (panel of 442 kinases [3]) |
| --- | --- | --- | --- |
| COc1cc(C(=O)N2CCC(N3CCN(C)CC3)CC2)ccc1Nc1ncc2c(n1)N(C)c1ccccc1C(=O)N2C [15 (LRRK2-IN-1)] | 99 | 62 | 100 |
| COc1cc(C(=O)N2CCC(N3CCN(C)CC3)CC2)ccc1Nc1ncc2c(n1)N1CCc3cccc(c31)C(=O)N2C [Compound 24] | 76 | 62 | – |
| COc1cc(C(=O)N2CCC(N3CCN(C)CC3)CC2)ccc1Nc1ncc2c(n1)N(C1CCCC1)c1ccccc1C(=O)N2C [Compound 25, 11-cyclopentyl-2-((2-methoxy-4-(4-(4-methylpiperazin-1-yl)piperidine-1-carbonyl)phenyl)amino)-5-methyl-5H-benzo[e]pyrimido[5,4-b][1,4]diazepin-6(11H)-one] | 100 | 80 | 100 |
| CCOc1cc(C(=O)N2CCC(N3CCN(C)CC3)CC2)ccc1Nc1ncc2c(n1)N(C1CCCC1)c1ccccc1C(=O)N2C [Compound 26] | 100 | 78 | 100 |
